Key:
Format in all cases: physicochemical
[1] = Degradation stability test: original sample and overall comparison (HPLC content determination)
Text: Meanwhile, the degradation stabilities of A3/A4 oxime and the crystal form A of A3 oxime were compared in the invention, and the degradation conditions are as follows:
(§1) The HPLC conditions for content determination are as follows: […]

[2] = Protection from light (black PE bag and aluminum foil bag in light box, 18 hrs)
Protocol: About 600 mg of the sample was weighed, placed evenly in a weighing bottle, the weighing bottle containing the sample was put into a black PE bag, and then the PE bag was packaged with an aluminum foil bag, the aluminum foil bag was placed into a light box with an illuminance of 600 w/m^2. After illumination of 18 hrs, taken out, placed into a desiccator and cooled to room temperature, and the weight loss on drying was measured.
as §1

[3] = Photodegradation (light box, 600 w/m^2, 24 hrs)
Protocol: According to the ICH requirement, the total illuminance requirement of 200 w·hr/m^2 and 1,200,000 lux·hr is required for photodegradation. If the illuminance is 600 w/m^2, the ICH requirement is met, and the illumination time needs at least 9 hrs.
Approximately 600 mg of the sample was weighed, placed evenly in a weighing bottle, placed into a light box with an illuminance of 600 w/m^2 and illuminated for 24 hrs, taken out, placed into a desiccator and cooled to room temperature, and the weight loss on drying was measured.
as §1

[4] = Oxidative degradation (30% hydrogen peroxide, 24 hours)
Protocol: 1) Oxidative Degradation A sample of 50 mg was weighed accurately and added to a 100.0 ml volumetric flask, dissolved by adding 10 ml methanol, 1.0 ml of 30% hydrogen peroxide was added, standing for 24 hours, then was diluted to the scale with methanol.
as §1

[5] = Protection from light: PE bag and aluminum foil bag, light box 600 w/m^2, 18 hrs
[6] = Illumination: 600 w/m^2 for 24 hrs
[7] = Oxidation: 30% hydrogen peroxide in methanol, standing for 24 hours

- Content ([1]; Original sample, HPLC): 98.1%
- Total Impurity ([1]; Original sample, HPLC): 0.3215%
- Total Impurity increment ([2]; Protection from light, versus original sample): 0.0156%
- Content [2, 5]: 96.9%
- Total Impurity [2, 5]: 0.3371%
- Total Impurity increment ([3]; Illumination, versus original sample): 1.2485%
- Content [3, 6]: 96.8%
- Total Impurity [3, 6]: 1.57%
- Total Impurity increment ([4]; Oxidation, versus original sample): −0.0847%
- Content [4, 7]: 98.3%
- Total Impurity [4, 7]: 0.2368%
SMILES: CC1=C[C@H]2C(=O)O[C@H]3C[C@@H](C/C=C(\C)C[C@@H](C)/C=C/C=C4\CO[C@H](/C1=N\O)[C@@]42O)O[C@@]1(CC[C@H](C)[C@@H](C)O1)C3 [crystal form A of A3 oxime, Milbemycin A3 oxime]
- stability (degradation stability test results) ([1]; overall comparison of Table 2): significantly better than that of A3/A4 oxime
